The values below come from US10920198B2, “Delta133p53beta and delta133p53gamma isoforms are biomarkers of cancer stem cells” (Centre National de la Recherche Scientifique (CNRS), priority 2015, dated 2021).

Data set [1] has as its system MCF-7 cells. The experiment in a line: Mammosphere formation in MCF-7 cells. As to conditions: for mammosphere formation: MCF-7 cells after transduction, compared to control cells. The data set is classed as cell-based, human. How it is done: (§1) For mammosphere formation, 1000 cells/ml (500 cells/well) were plated in Ultra Low Cluster Plate, 24-well, Flat Bottom (Corning Inc) with MammoCult™ Medium enriched with MammoCult™ Proliferation Supplements, hydrocortisone and heparin (Stem Cell Technologies) and cultured for 15 days. For all mammosphere assays, at least three independent experiments for each condition were carried out and repeated 8-12 times. For self-renewal experiments, transfected cells were subjected to a first cycle of mammosphere formation. Upon 15 days of culture the created mammospheres were dissociated and cells were re-plated in identical conditions as for the first plating.

Data set [2] has as its system c-Myc, Sox 2, Oct 3/4 and Nanog. The experiment in a line: Expression of pluripotency/reprogramming factors in MCF-7 cells (RT-qPCR, western blot). The class given is cell-based, human. The following applies: for c-Myc expression / expression of Oct 3/4, Nanog and Sox 2: MCF-7 cells after transduction, mRNA and/or protein. An excerpt: (§2) The following antibodies were used for immunoblotting: anti-c-Myc (9E10 mouse hybridoma clone), -Nanog (sc-81961, Santa Cruz Biotechnology), -Oct 3/4 (sc-8630, Santa Cruz Biotechnology), -Sox 2 (sc-17320, Santa Cruz Biotechnology), -p53 (DO-1; sc-126 Santa Cruz Biotechnology), -p53 Sapu (Vojtesek et al. 1995), -α-tubulin (clone DM1A, Sigma-Aldrich), -β-actin (clone AC-74 Sigma-Aldrich), -p21 (sc-397 Santa Cruz Biotechnology) and -Flag (clone M2; Sigma-Aldrich). Secondary HRP-conjugated antibodies were from GE Healthcare. For luminescence quantification, cells were serially diluted and incubated with 0.5 mM D-luciferin (Sigma). Luminescence was quantified with a Polarstar Omega instrument (BMG LABTECH).
(§3) Total RNA was extracted (Qiagen) and reverse transcription (RT) was performed with 1-5 μg of total RNA using the SuperScript® III Reverse Transcriptase (Life Technologies) at 50° C. Levels of different mRNAs were quantified by real-time qPCR on a LightCycler480 apparatus (Roche). Briefly, 20 ng cDNA was amplified using 0.168 μM of each primer, 0.2 μM of probe (Table 4) and 1× LightCycler® 480 Probes Master Mix (Roche) for the p53 isoforms, or commercially available primers (Qiagen) and 1× LightCycler® 480 Sybr Green Master Mix (Roche) for the other genes. Data were normalized to the internal standard TBP. The different primers used and their corresponding sequences have been previously described (Bourdon et al., 2005). For each single-well amplification reaction, a threshold cycle (Ct) was calculated by using the LightCycler480 program (Roche) in the exponential phase of amplification. Relative changes in gene expression were determined using the 2ΔΔCt method and reported relative to a control. All quantification studies were performed with at least three independent experiments, repeated twice, for each condition. Data are presented as the arithmetic mean±SEM.

For data set [3], the system named is MCF-7 cells. Put plainly: Flow cytometry of CD44/CD24 double labeling in MCF-7 cells. The class given is cell-based, human. As to conditions: MCF-7 cells after transduction. How it is done:
(§4) Single cell suspensions were labeled on ice with CD24-FITC, CD44-PE and their respective isotype controls (BioLegend) at the dilutions indicated by the manufacturer in Phosphate Buffered Saline (PBS) with 10% FBS for 30 min. Cells were then washed once with PBS and re-suspended in PBS/10% FBS. All samples were analyzed on a CyAn analyzer ([…] Coulter, Inc) using Sytox Blue (Life Technologies) to monitor cell viability.
Background: In flow cytometry, cells or beads pass a laser one at a time.

The test system of data set [4] is Δ133p53 (α, β and γ) isoforms. Put plainly: Expression of Δ133p53 isoforms in MCF-7 cells (RT-qPCR, western blot). The class given is cell-based, human. The following applies: MCF-7 cells after transduction; RT-qPCR.
Description: as §2
Total RNA was extracted (Qiagen) and reverse transcription (RT) was performed with 1-5 μg of total RNA using the SuperScript® III Reverse Transcriptase (Life Technologies) at 50° C. Levels of different mRNAs were quantified by real-time qPCR on a LightCycler480 apparatus (Roche). […] For each single-well amplification reaction, a threshold cycle (Ct) was calculated by using the LightCycler480 program (Roche) in the exponential phase of amplification. Relative changes in gene expression were determined using the 2ΔΔCt method and reported relative to a control. All quantification studies were performed with at least three independent experiments, repeated twice, for each condition. […]

For a further data set, the system named is C3LND cancer cells. The experiment in a line: Distant metastasis after intracardiac injection of C3LND cells in athymic mice (bioluminescence). The data set is classed as in vivo. As to conditions: transduced C3LND cells, compared to control cells. As for the experimental part: All in vivo experiments were performed in compliance with the French regulations and ethical guidelines for experimental animal studies in an accredited establishment (Agreement No. C34-172-27). 2.10^6 control or Sh3-treated C3LND cancer cells were grafted in 6 week-old female athymic mice (Harlan, Le Malourlet, France) by intracardiac injection (n=5-7/group). Bioluminescence detection was used to monitor tumor growth and distal metastasis formation in head and legs. Regions of interest (ROI) were delineated around the tumor sites and the total flux (ph/s) in the ROI was measured.

In data set [5] the test system is MDA-MB-231 C3LND cells. The experiment in a line: Mammosphere formation in MDA-MB-231 C3LND cells. As to conditions: C3LND cells after transduction. The class given is cell-based, human. As for the experimental part: as §1
Data set [6] has as its system SW480 colon carcinoma cells. The experiment in a line: Colosphere formation in SW480 colon carcinoma cells. The class given is cell-based, human. As to conditions: compared to control shLuc. As for the experimental part:
as §1
The same protocol has been used with human colon carcinoma cell line SW480.

Data set [7] has as its system c-Myc, Oct 3/4, Nanog and Sox 2. The experiment in a line: RT-qPCR of pluripotency/reprogramming factors in MDA-MB-231 C3LND cells. The data set is classed as cell-based, human. As to conditions: C3LND cells after transduction. As for the experimental part: as §3
(In general: Real-time PCR tracks product formation cycle by cycle.)

The subject of data set [8] is MDA-MB-231 C3LND cells. The experiment in a line: Flow cytometry of CD44/CD24 double labeling in MDA-MB-231 C3LND cells. The class given is cell-based, human. As to conditions: C3LND cells after transduction. How it is done: as §4
Data set [9] relates to c-Myc, Oct 3/4, Nanog and Sox 2. Put plainly: Expression of pluripotency/reprogramming factors in MDA-MB-231 D3H2LN cells (RT-qPCR, western blot). The class given is cell-based, human. The following applies: D3H2LN cells, overexpression. As for the experimental part: The human breast cancer cell lines MCF-7, MDA-MB 231 D3H2LN and C3LND were grown in MEM supplemented with 10% FCS, sodium pyruvate and glutamine. Following viral infection, cells were used after 24-48 h or subjected to selection with 2 μg/ml puromycin (InvivoGen) or 300 μg/ml hygromycin B (Invitrogen) for two days. Etoposide treatment was performed with final doses of 12.5, 25 and 50 ng/ml for 16 h or 50 ng/ml/day for 7 days.
as §2, §3

In the next data set the test system is MDA-MB-231 D3H2LN cells. Put plainly: Mammosphere formation in MDA-MB-231 D3H2LN cells. The class given is cell-based, human. The following applies: overexpression. How it is done: as §1

Consider “Sh1: shRNA, 5′-GACTCCAGTGGTAATCTAC-3′ (SEQ ID NO: 13); knocks down all p53 isoforms (target site or template, no part of the molecule; short hairpin RNA, only the targeted sequence is given, further chemistry not given here)”, for which the mammosphere formation result in the data set on MCF-7 cells [1] is listed as “significant reduction”. In data set [2], the c-Myc expression entry was “no effect”; the “expression of Oct 3/4, Nanog and Sox 2” value was “no effect”.
For the molecule “Sh2: shRNA, 5′-GTCCAGATGAAGCTCCCAGAA-3′ (SEQ ID NO: 18); targets the long TAp53 and Δ40p53 isoforms (target site or template, no part of the molecule; short hairpin RNA, only the targeted sequence is given, further chemistry not given here)”, the mammosphere formation entry in the data set on MCF-7 cells [1] is recorded as “no effect”. Moreover, in [2], the c-Myc expression result was “but not of c-Myc”; the “expression of Oct 3/4, Nanog and Sox 2” value is “increased expression”. Moreover, the “proportion of CD44+/CD24− cells” value with MCF-7 cells [3] is “not affected”. In addition, in [4], the “expression of the Δ133 isoforms” value is listed as “increased”.
Take “Sh3: shRNA, 5′-GGAGGTGCTTACACATGTT-3′ (SEQ ID NO: 14); targets the 5′ UTR of the Δ133 isoforms (α, β and γ) (target site or template, no part of the molecule; short hairpin RNA, only the targeted sequence is given, further chemistry not given here)”: the mammosphere formation entry in the data set on MCF-7 cells [1] is on record as “significantly reduced”. Besides, in the data set on C3LND cancer cells, the “metastasis to distant sites” value was “less prone to metastasize to distant sites”. Besides, the sphere formation entry in the data set with MDA-MB-231 C3LND cells [5] was “significant reduction”. Moreover, in [2], the c-Myc expression entry is “not affected”; the “expression of Oct 3/4, Nanog and Sox 2” value is on record as “significantly down-regulated”. Also, the “Oct 3/4, Nanog and Sox 2 expression” value in data set [2] (MCF-7 cells, both etoposide treated and untreated) was “reduced”. In addition, in data set [6], the colospheres formation entry was “significantly reduced”. In [7], the “Oct 3/4, Nanog and Sox 2 expression” value is on record as “marked decrease”; the c-Myc level entry is recorded as “small increase”. Further, the “proportion of CD44+/CD24− cells” value in the data set on MDA-MB-231 C3LND cells [8] is given as “decreased”.
For the molecule “Sh4: shRNA, 5′-CTTGTGCCCTGACTTTCAA-3′ (SEQ ID NO: 15); targets the 5′ UTR of the Δ133 isoforms (α, β and γ) (target site or template, no part of the molecule; short hairpin RNA, only the targeted sequence is given, further chemistry not given here)”, in the data set on MCF-7 cells [1], the mammosphere formation entry is reported as “significantly reduced”. In data set [2], the c-Myc expression result was “not affected”; the “expression of Oct 3/4, Nanog and Sox 2” value was “significantly down-regulated”.
On to “Sh5: shRNA, 5′-GGACCAGACCAGCTTTCA-3′ (SEQ ID NO: 16); targets the 3′ end of the β isoforms (target site or template, no part of the molecule; short hairpin RNA, only the targeted sequence is given, further chemistry not given here)”, for which the mammosphere formation entry in the data set on MCF-7 cells [1] was “significantly reduced”.
For the molecule “Sh6: shRNA, 5′-GTGAGCGCTTCGAGATGTT-3′ (SEQ ID NO: 19); targets the 3′ end of the α isoforms (target site or template, no part of the molecule; short hairpin RNA, only the targeted sequence is given, further chemistry not given here)”, in the data set with MCF-7 cells [1], the mammosphere formation entry is reported as “did not affect”.
As for “Δ133p53β: human p53 isoform (SEQ ID NO: 1), overexpressed from pMSCVhyg retroviral vector”, the “Oct 3/4, Nanog and Sox 2 expression” value is “significant increase” in data set [9] and “increased” in [7]. For the same molecule, in [9], the c-Myc level result is “not affected”. The results for the mammosphere formation result in the data set with MCF-7 cells [1] and in the data set on MDA-MB-231 D3H2LN cells were “significantly promoted” and “significant increase”, respectively. Also, the “mammosphere formation after harvesting and re-plating of primary mammospheres” value in the data set on MCF-7 cells [1] (MCF-7 cells overexpressing the isoform, self-renewal) is on record as “higher”. The c-Myc expression entry in [2] was “but not of c-Myc”. Besides, the “expression of Oct 3/4, Nanog and Sox 2” value in [2] is reported as “significant increase”.

B1: Δ133p53γ: human p53 isoform (SEQ ID NO: 3), overexpressed from pMSCVhyg retroviral vector (protein, listed as Homo sapiens)
chain: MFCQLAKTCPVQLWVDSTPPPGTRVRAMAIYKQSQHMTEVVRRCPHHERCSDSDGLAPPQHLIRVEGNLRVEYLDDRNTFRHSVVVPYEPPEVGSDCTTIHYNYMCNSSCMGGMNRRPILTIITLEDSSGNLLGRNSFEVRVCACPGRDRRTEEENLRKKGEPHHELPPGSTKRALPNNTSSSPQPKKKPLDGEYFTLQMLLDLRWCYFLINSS
modifications: SITE (1)..(214) Homo sapiens tumor protein p53, isoform delta133p53gamma (Genbank NP_001119589.1)
For B1, the mammosphere formation result with MCF-7 cells [1] is reported as “milder effect”.
